Experimental data published in PubChem BioAssay (NCI).
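Each compound was tested at five concentrations against cells in 96-well plates for 48 hours. GI50 marks 50% less growth. TGI marks complete inhibition of growth.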

Legend:
Test in all cases: NCI-60 cell line screen, 48 h
[1] = system: OVCAR-8 ovarian
[2] = system: SK-MEL-28 melanoma
[3] = system: SW-620 colon
[4] = system: SNB-19 CNS
[5] = system: IGROV1 ovarian
[6] = system: A498 renal
[7] = system: NCI-H226 lung
[8] = system: HCT-15 colon
[9] = system: EKVX NSCLC
[10] = system: MDA-MB-231 breast

Row | Compound | TGI [1] [µM] | TGI [2] [µM] | TGI [3] [µM] | TGI [4] [µM] | TGI [5] [µM] | TGI [6] [µM] | TGI [7] [µM] | TGI [8] [µM] | TGI [9] [µM] | GI50 [1] [µM] | GI50 [2] [µM] | GI50 [3] [µM] | GI50 [4] [µM] | GI50 [5] [µM] | GI50 [6] [µM] | GI50 [7] [µM] | GI50 [8] [µM] | GI50 [10] [µM] | TGI [10] [µM] | GI50 [9] [µM]
1 | CN(C)C(=S)/N=c1\ss/c(=N\C(=S)N(C)C)n1Cc1ccco1 | > 100 | > 100 | > 100 | > 100 | > 100 | > 100 | > 100 | > 100 |  |  |  |  |  |  |  |  |  |  |  | 
2 | CN(C(=O)C12C3C4C1C1C2C3C41C(O)C(C)(C)C)C(C)(C)C (stereo not given) | > 100 | > 100 | > 100 | > 100 | > 100 | > 100 | > 100 |  | > 100 |  |  |  |  |  |  |  |  |  |  | 
3 | Clc1ccc2nc(Cl)c3ccccc3c2c1 | > 100 | > 100 | > 100 | 40.2 | 86.8 | 9.85 | > 100 | > 100 |  | 11.8 | > 100 | > 100 | 9.26 | 6.21 | 2.22 | 14 | > 100 | 7.27 | 33.2 | 
4 | O=S1c2ccccc2NC(c2ccc3ccccc3c2)CC1c1ccccc1 (stereo not given) | 57 | > 100 | 42.7 | > 100 | 40.5 |  | 48.9 | 54 | 63.9 |  |  |  |  |  |  |  |  |  |  | 
5 | Oc1ccc2ccccc2c1N=Nc1ccc(Cl)cc1 | > 100 | > 100 | > 100 | > 100 | > 100 |  | > 100 | > 100 | > 100 |  |  |  |  |  |  |  |  |  | > 100 | 
6 | C[N+](C)(C)CC(CC(=O)[O-])C1CC1 (stereo not given) | > 100 | > 100 | > 100 | > 100 | > 100 | > 100 |  | > 100 | > 100 |  |  |  |  |  |  |  |  |  |  | 
7 | O=C(O)c1cn(C2CC2)c2cc(N3CCNCC3)c(F)cc2c1=O | > 100 | > 100 | > 100 |  | > 100 |  | > 100 | > 100 |  | > 100 | > 100 | > 100 |  | > 100 |  | > 100 | > 100 | > 100 | > 100 | 
8 | Fc1ccc([C@@H]2CCNC[C@H]2COc2ccc3c(c2)OCO3)cc1 |  | 19 | 24.2 | 25.4 | 20.3 | 19.2 | 29.9 | 27 |  |  | 5.96 | 10.6 | 12 | 7.05 | 5.52 | 13.7 | 11 | 3.07 | 15 | 
9 | COc1ccc(-c2nnc(SCC(=O)Nc3ccc(C(=O)/C=C/c4cc(OC)c(OC)c(OC)c4)cc3)n2-c2ccccc2)cc1OC | > 10 | > 10 | > 10 | > 10 | > 10 | > 10 | 8.06 | > 10 |  | 5.29 | > 10 | 2.45 | > 10 | 7.72 | 5 | 2.29 | 2.01 | 4.84 | > 10 | 
10 | O=c1ccn(C2(CO)C=C(CO)C(O)C2O)c(=O)[nH]1 (stereo not given) | > 25.7 | > 25.7 | > 25.7 | > 25.7 | > 25.7 | > 25.7 | > 25.7 | > 25.7 | > 25.7 |  |  |  |  |  |  |  |  |  |  | 
11 | CCCC(=O)c1ccc(=O)n(C)c1 | > 100 | > 100 | > 100 | > 100 | > 100 |  | > 100 | > 100 | > 100 |  |  |  |  |  |  |  |  |  |  | 
12 | COc1cc(C(=O)O/N=C(\N)Cc2cccc3ccccc23)cc(OC)c1OC | 43.8 | 26.2 | 27.8 | 21.6 | 12.1 | 60.7 | 42.5 | 21.4 |  | 11.5 | 12.4 | 11.7 | 8.86 | 3.61 | 5.79 | 16.9 | 6.41 | 4.12 | 18 | 
13 | COc1ccc(/C=C\c2cc(OC)c(OC)c(OC)c2)cc1OCC(=O)Nc1nc2ccccc2s1 | > 100 |  | > 100 |  | > 81.4 | > 83.4 |  | > 100 | > 100 | 0.257 |  | 0.0359 |  | 0.221 | 0.346 |  | 0.0519 | 0.179 | > 100 | 3.65
14 | CCCC(C)c1c(Cl)nc(Cl)nc1Cl (stereo not given) | 55.9 | 13.4 | > 100 | 35.6 | 36.4 |  | 18.7 | 64.4 | 36.9 |  |  |  |  |  |  |  |  |  | > 100 | 
15 | Nc1c(C(=O)NC23CC4CC(CC(C4)C2)C3)[n+]([O-])c2ccccc2[n+]1[O-] | > 100 | > 100 | > 100 | > 100 | > 100 | > 100 | > 100 | > 100 | > 100 |  |  |  |  |  |  |  |  |  |  | 
16 | Cc1cn([C@H]2C[C@H](O)[C@@H](CO)O2)c(=O)nc1N | > 100 | > 100 | > 100 | > 100 | > 100 | > 100 | > 100 | > 100 |  |  |  |  |  |  |  |  |  |  | > 100 | 
17 | COc1ccc(OC(C)C(=O)O)c2c1CCCC2=O (stereo not given) | > 100 | > 100 | > 100 | > 100 | > 100 | > 100 | > 100 | > 100 | > 100 |  |  |  |  |  |  |  |  |  |  | 
18 | CC(C)CN1CC(C)C(=O)NC1=O (stereo not given) | > 100 | > 100 | > 100 | > 100 |  | > 100 | > 100 |  | > 100 |  |  |  |  |  |  |  |  |  |  | 
19 | COc1ccc(N=Nc2c(-c3ccccc3)nn(C(=O)CC(=O)Nc3ccccc3Cl)c2-c2ccccc2)cc1 | > 100 | > 100 | > 100 | > 100 | > 100 | > 100 | > 100 | > 100 | > 100 |  |  |  |  |  |  |  |  |  |  | 
20 | NC(CCc1ncc(-c2ccccc2)s1)C(=O)O (stereo not given) | > 100 | > 100 | > 100 | > 100 | > 100 | > 100 | > 100 | > 100 | > 100 |  |  |  |  |  |  |  |  |  |  | 
21 | O=C(c1ccco1)c1nc2cc(C(F)(F)F)ccc2[n+]([O-])c1C(F)(F)F | > 100 | > 100 | > 100 | > 100 | > 100 | > 100 |  | > 100 | > 100 | > 100 | 41.4 | 37.5 | 48.3 | 34.9 | 39.3 |  | 56.5 | 68.8 | > 100 | 34
